Assay results reported in patent US20240207258A1, “HETEROCYCLIC PDK1 INHIBITORS FOR USE TO TREAT CANCER” (Viracta Therapeutics, Inc., priority 2015, published 2024).

How the values were obtained:
[1] = system: RPMI-8226; assay: MTS cell proliferation assay, RPMI-8226; assay type: cell-based; details: Homo sapiens; RPMI-8226, 72 hr
Experimental: Cell proliferation was measured using the CellTiter 96 Aqueous Non-Radioactive Cell Proliferation Assay (Promega). The CellTiter 96® AQueous Assay is composed of solutions of a tetrazolium compound [3-(4,5-dimethylthiazol-2-yl)-5-(3-carboxymethoxyphenyl)-2-(4-sulfophenyl)-2H-tetrazolium, inner salt; MTS] and an electron coupling reagent (phenazine methosulfate) PMS. MTS is bioreduced by cells into a formazan product that is soluble in tissue culture medium. The absorbance of the formazan product at 490 nm can be measured directly from assay plates without additional processing. The quantity of formazan product as measured by the amount of 490 nm absorbance is directly proportional to the number of living cells in culture. Cells were seeded into 96-well or 384-well clear plates in a volume of 200 μL (96-well) or 50 μL (384-well) at optimized densities ranging from 1,000 to 40,000 cells per well for 96-well plates or 1,200 to 25,000 cells per well for 384-well plates depending on cell-line. After 4-6 hr recovery, serially diluted compounds in DMSO were added to the cells using (0.1% v/v final DMSO concentration). Cells were then grown at 37° C. in a humidified incubator with 5% CO2 for 72 hr. A 20:1 [3-(4,5-dimethylthiazol-2-yl)-5-(3-carboxymethoxyphenyl)-2-(4-sulfophenyl)-2H-tetrazolium](MTS):phenazine methosulfate (PMS) solution in DPBS was made immediately before use, added to each well, and cells were incubated for 1.5 hr at 37° C. The absorbance at 490 nm was then measured using a platereader. Absorbance values were normalized as percent of control (cells incubated in the presence of 0.1% v/v DMSO). Sigmoidal dose-response curves were plotted using log(inhibitor) vs. response—Variable slope (four parameters) model with a top value constrained to 100% (GraphPad Prism version 6.00 for Windows, GraphPad Software, La Jolla California USA). […] Curves for compounds that reached a plateau were matched exactly to the measurement points. […] To determine potential of compounds of the invention to affect viability of hematological cancers, cell lines representing various tumor types were selected and tested. Human cell lines tested were: MOLM-13 (acute myeloid leukemia (AML)), MV4-11 (AML), U-2932 (ABC-diffuse large B cell lymphoma), U-937 (histiocytic lymphoma), U-266 (multiple myeloma), RPMI-8226 (multiple myeloma), CMK (megakaryoblastic cell line), SU-DHL-4 (GCB-diffuse large B cell lymphoma), KG1 (AML), Mec-1 (chronic B-cell leukemia), MOLM-16 (AML), Jeko (B-cell lymphoma), WSU-DLCL2 (B-cell lymphoma), JJN3 (plasma cell leukemia), SU-DHL-6 (GCB-diffuse large B cell lymphoma), and Z-138 (mantle cell lymphoma). In addition, two murine cell lines were tested: A20 […].

[2] = system: JJN3; assay: MTS cell proliferation assay, JJN3; assay type: cell-based; details: Homo sapiens, JJN-3; JJN3, 72 hr
Experimental: Cell proliferation was measured using the CellTiter 96 Aqueous Non-Radioactive Cell Proliferation Assay (Promega). The CellTiter 96® AQueous Assay is composed of solutions of a tetrazolium compound [3-(4,5-dimethylthiazol-2-yl)-5-(3-carboxymethoxyphenyl)-2-(4-sulfophenyl)-2H-tetrazolium, inner salt; MTS] and an electron coupling reagent (phenazine methosulfate) PMS. MTS is bioreduced by cells into a formazan product that is soluble in tissue culture medium. The absorbance of the formazan product at 490 nm can be measured directly from assay plates without additional processing. The quantity of formazan product as measured by the amount of 490 nm absorbance is directly proportional to the number of living cells in culture. Cells were seeded into 96-well or 384-well clear plates in a volume of 200 μL (96-well) or 50 μL (384-well) at optimized densities ranging from 1,000 to 40,000 cells per well for 96-well plates or 1,200 to 25,000 cells per well for 384-well plates depending on cell-line. After 4-6 hr recovery, serially diluted compounds in DMSO were added to the cells using (0.1% v/v final DMSO concentration). Cells were then grown at 37° C. in a humidified incubator with 5% CO2 for 72 hr. A 20:1 [3-(4,5-dimethylthiazol-2-yl)-5-(3-carboxymethoxyphenyl)-2-(4-sulfophenyl)-2H-tetrazolium](MTS):phenazine methosulfate (PMS) solution in DPBS was made immediately before use, added to each well, and cells were incubated for 1.5 hr at 37° C. The absorbance at 490 nm was then measured using a platereader. Absorbance values were normalized as percent of control (cells incubated in the presence of 0.1% v/v DMSO). Sigmoidal dose-response curves were plotted using log(inhibitor) vs. response—Variable slope (four parameters) model with a top value constrained to 100% (GraphPad Prism version 6.00 for Windows, GraphPad Software, La Jolla California USA). […] Curves for compounds that reached a plateau were matched exactly to the measurement points. […]

[3] = system: MV4-11 tumor xenografts; assay: MV4-11 tumor xenograft efficacy; assay type: in vivo, mice
Excerpt: MV4-11 cells were propagated in vitro and implanted subcutaneous into the right flank of 9-week old female NCr nu/nu mice as described in Example 7. The animals were fed ad libitum water (reverse osmosis, 1 ppm Cl), and NIH 31 Modified and Irradiated Lab Diet® consisting of 18.0% crude protein, 5.0% crude fat, and 5.0% crude fiber. Fourteen days after tumor implantation, designated as Day 1 of the study, the animals were sorted into seven groups each consisting of ten mice with individual tumor volumes of 108 to 288 mm^3 and group mean tumor volumes (MTV) of 162 to 165 mm^3. On Day 1 of the study, dosing by oral gavage was initiated as follows: The dosing volume was 0.100 mL per 20 grams of body weight (5 mL/kg), and was scaled to the body weight of each individual animal. Group 1 mice received vehicle and served as the control group. Groups 2-4 received Compound 1 at 5, 11, and 25 mg/kg, respectively, qd×21. Groups 5-7 received Compound 2 at 5, 11, and 25 mg/kg, respectively, qd×21. Dosing solutions were prepared weekly by dissolving the appropriate amount of powder in 1% […] (DMA) in Labrasol® (vehicle) to yield a 5 mg/mL solution. The 5 mg/mL solution provided the 25 mg/kg dosage in a dosing volume of 5 mL/kg. An aliquot of the 5 mg/mL solution was diluted in the vehicle to concentrations of 2.2 and 1 mg/mL which provided the 11 and 5 mg/kg dosages, respectively, in a dosing volume of 5 mL/kg.
Tumors were measured using calipers twice per week. The study endpoint was defined as a mean tumor volume of 2000 mm^3 in the control group or 22 days, whichever came first and the study was terminated on Day 22. Animals were weighed daily on Days 1-5, then twice per week until the completion of the study. The mice were observed frequently for overt signs of any adverse, treatment related (TR) side effects, and clinical signs were recorded when observed. Individual body weight loss was monitored as per protocol and any animal whose weight exceeded the limits for acceptable body weight loss was euthanized. Group mean body weight loss also was monitored as per protocol. Dosing was to be suspended in any group whose weight exceeded the limits for acceptable mean body weight loss. If mean body weight recovered, then dosing may be resumed in that group, but at a lower dosage or less frequent dosing schedule. Acceptable toxicity was defined as a group mean body weight loss of less than 20% during the study and not more than 10% treatment-related (TR) deaths. Any dosing regimen resulting in greater toxicity was considered above the maximum tolerated dose (MTD). A death was classified as TR if attributable to treatment side effects as evidenced by clinical signs and/or necropsy, or may also be classified as TR if due to unknown causes during the dosing period or within 14 days of the last dose. A death was classified as non-treatment-related (NTR) if there was no evidence that death was related to treatment side effects.
Treatment efficacy was determined using data from the final day. The MTV (n) (the median tumor volume for the number of animals, n) on the final day was determined for each group. Group 1 mice that received vehicle p.o. qd×21 served as the control group for analysis of tumor growth inhibition (TGI) determined according to the formula % TGI=[1−(MTVdrug-treated/MTVcontrol)]×100. Treatment efficacy was also determined from the incidence and magnitude of regression responses observed during the study. Treatment may cause partial regression (PR) or complete regression (CR) of the tumor in an animal. In a PR response, the tumor volume was 50% or less of its Day 1 volume for three consecutive measurements during the course of the study, and equal to or greater than 13.5 mm^3 for one or more of these three measurements. In a CR response, the tumor volume was less than 13.5 mm^3 for three consecutive measurements during the course of the study.

Structure (SMILES)	EC50 [1]	EC50 [2]	MTV (median tumor volume) on Day 22 ([3]; 5 mg/kg p.o. qd×21)	TGI (tumor growth inhibition) ([3]; 5 mg/kg p.o. qd×21, Day 22)	regression responses (PRs) ([3]; 5 mg/kg p.o. qd×21, ten mice)	MTV (median tumor volume) on Day 22 ([3]; 11 mg/kg p.o. qd×21)	TGI (tumor growth inhibition) ([3]; 11 mg/kg p.o. qd×21, Day 22)	regression responses (PRs) ([3]; 11 mg/kg p.o. qd×21, ten mice)	MTV (median tumor volume) on Day 22 ([3]; 25 mg/kg p.o. qd×21)	TGI (tumor growth inhibition) ([3]; 25 mg/kg p.o. qd×21, Day 22)	regression responses (PRs) ([3]; 25 mg/kg p.o. qd×21, ten mice)
C[C@H](NC(=O)c1nc(C#N)cnc1NCc1ccc(-c2cnc3[nH]nc(N)c3n2)cc1)c1ccc(F)c(F)c1 [Compound 1, 3-[4-(3-Amino-1H-pyrazolo[3,4-b]pyrazin-5-yl)-benzylamino]-6-cyano-pyrazine-2-carboxylic acid [1-(3,4-difluoro-phenyl)-ethyl]-amide]	174 nM	846 nM	446 mm^3	69%	no regression responses	288 mm^3	80%	no regression responses	63 mm^3	96%	seven
CNc1n[nH]c2ncc(-c3ccc(CNc4ncc(C#N)nc4C(=O)N[C@@H](C)c4ccc(F)c(F)c4)cc3)cc12 [Compound 2, 6-Cyano-3-[4-(3-methylamino-1H-pyrazolo[3,4-b]pyridin-5-yl)-benzylamino]-pyrazine-2-carboxylic acid [1-(3,4-difluoro-phenyl)-ethyl]-amide]	163 nM	453 nM	320 mm^3	77%	no regression responses	108 mm^3	92%	three	40 mm^3	97%	eight
